The text below walks through data of publication PMC7408072 (Pharmaceutics, 2020).

Peptide text beside a SMILES is read from it. * marks the point of attachment. 5TAMRA = CN(C)c1ccc2c(c1)Oc1cc(N(C)C)ccc1C21OC(=O)c2cc(C(=O)*)ccc21

Data set [1] concerns bovine BCEC monolayers co-cultured with rat astrocytes. Kind of data set: Barrier integrity by transendothelial electrical resistance (TEER). The class given is cell-based. As to conditions: 3 h, bovine BBB model; for barrier integrity (TEER before and after peptide application): 100 µM peptide, 37 °C, N = 3, n = 3. How it is done: Transport across bovine or mouse BCEC monolayers co-cultured with rat astrocytes was carried out over 3 h at 37 °C with horizontal shaking (90 rpm). TEER was measured at room temperature using an Endohm 12 cup (World Precision Instruments, Sarasota, FL, USA) connected to a Millicell-ERS device (Millipore, Bedford, MA, USA). TEER was measured before application of the peptides and after each experiment. The bovine model had initial TEER values ranging from 771 to 1332 Ω·cm^2, whereas the mouse model had initial TEER values ranging from 136 to 217 Ω·cm^2.

The test system of data set [2] is primary bovine brain capillary endothelial cells co-cultured with primary rat astrocytes. As to the kind of experiment: Peptide stability on the in vitro bovine BBB model. The class given is in vitro ADME. As to conditions: FBS-free differentiation medium, 50 µM peptide, bovine BCEC/rat astrocyte co-culture, 37 °C, 90 rpm, HPLC C18, 220 and 543 nm, mean ± SD, N = 3. Here is the method: BCECs co-cultured with rat astrocytes: a batch of capillary suspension was thawed and the DMSO removed by centrifugation in DMEM complete at 500× g for 5 min at room temperature. The pellet was re-suspended in DMEM complete and transferred to a culture flask (T75) coated with collagen and fibronectin (both 0.01 mg/mL in PBS). The capillary fragments were allowed to settle for 4–6 h in a humidified incubator (37 °C, 10% CO2) before changing the media to growth medium(+) (DMEM complete/ACM (1:1) with 125 µg/mL heparin) supplemented with 4 µg/mL pyromycin. On day 3, the BCECs received fresh growth medium(+) and rat astrocytes were seeded on the bottom of collagen and fibronectin coated (both 0.1 mg/mL in PBS) Transwell® plate permeable supports (Corning, Corning, NY, USA; 120,000 cells/1.12 cm^2 support with 0.4 µm pore size) in DMEM complete (37 °C, 10% CO2). On day 5, the media in the Transwell® plate was replaced by growth medium(-) (DMEM complete with 125 µg/mL heparin) and the endothelial cells detached from the flask using trypsin-EDTA (Thermo Fischer Scientific, Bedford, MA, USA). The remaining trypsin-EDTA was removed by centrifugation in DMEM complete at 1070× g for 5 min at room temperature. The endothelial cells were re-suspended in growth medium(-) and seeded on the apical side of the Transwell® plate permeable supports (100,000 cells/support). On day 8, the medium was changed to differentiation medium (DMEM containing 50 mM N-Tris-(hydroxymethyl)methyl-2-aminoethanesulfonic acid (TES), 10% FBS, 1% non-essential amino acids, 100 µg/mL penicillin/streptomycin (100 U/mL), 2 mM L-glutamine, 312.5 µM 8-(4-CPT)cyclic adenosine monophosphate, 0.5 µM dexamethasone, and 17.5 µM RO-20-1724). On day 11, the bovine BBB model was ready for use as evident by the measured transendothelial electrical resistance (TEER) values for each filter prior to experimental start.
Stability on the in vitro bovine BBB model: the differentiation medium was gently aspirated from the BCEC monolayers and replaced with 300 and 600 µL of 37 °C FBS-free differentiation medium containing 50 µM peptide on the luminal and abluminal side, respectively. The cells were incubated at 37 °C with horizontal shaking (90 rpm) for 4 h. Samples (10 µL) were withdrawn at 0, 10, 20, 30, 45, 60, 120, 180, and 240 min and two volumes of ice-cold ACN were immediately added prior to analysis by HPLC using an AdvanceBio Peptide Map column (C18, 4.6 × 150 mm, 2.7 µm particle size; Agilent, Glostrup, Denmark) connected to a Prominence system (LC-20 AD, SIL20 AC, SPD-M20A PDA, and CTO-20A modules; Shimadzu, Kyoto, Japan). Mobile phase A consisted of 95% ultrapure water and 5% ACN with 0.1% TFA and mobile phase B of 95% ACN and 5% ultrapure water with 0.1% TFA. […]

In data set [3] the test system is filter-grown BCECs co-cultured with rat astrocytes. Kind of data set: Cellular viability, XTT assay. The class given is cell-based. As to conditions: 100 µM peptide, 3 h, bovine BCEC/rat astrocyte co-culture, N = 3, n = 3. How it is done:
Briefly, the XTT labelling mixture was prepared by mixing electron coupling reagent with XTT labelling reagent at a 1:50 ratio. After peptide incubation, the monolayers were washed twice with 37 °C hHBSS. We applied 300 µL and 1 mL 37 °C hHBSS to the apical and basolateral compartments, respectively, prior to the addition of 150 µL XTT labelling mixture. The filters were incubated at 37 °C with horizontal shaking (90 rpm) for 1 h. Two 100 µL samples were withdrawn from the apical compartments and the absorbance measured at 466 nm using a SPECTROstar Nano plate reader (BMG Labtech, Offenburg, Germany). The relative cell viability was calculated as follows: Relative viability (%)=Asample−ASDS/Abuffer−ASDS×100% where Asample is the absorbance of the test sample, ASDS is the absorbance of the negative control (100% dead cells), and Abuffer is the absorbance of the positive control (100% viable cells).
(Tetrazolium dyes change colour on reduction, which living cells bring about.)

A further data set can be described thus: Tissue distribution. The class given is in vivo, NMRI mice. How it is done: Following 1 h of circulation, the mice were deeply anesthetized by i.p. injection of 0.05 mL/10 g body weight Ketaminol/Dexdormitor (2.25 mg ketamine/0.03 mg […] per 10 g body weight in 0.9% NaCl). The chest cage was opened and the mice transcardially perfused with 0.01 M PBS (pH 7.4) prior to isolation of the brain, heart, lungs, spleen, kidney, liver, and 2 cm of the upper part of the intestine. All tissues were immediately put on ice and kept at −80 °C until analysis.
The tissues were homogenized in 1 mL of ice-cold lysis buffer using a 7-mL Dounce tissue grinder set (Merck, St. Louis, MO, USA). Homogenates were left on ice for 10 min prior to centrifugation at 14,000× g and 4 °C for 10 min. Supernatants (100 µL) were transferred to a black clear-bottom 96-well plate for quantification of the TAMRA-peptides using a NovoStar fluorescence plate reader (BMG Labtech, Offenburg, Germany) with excitation and emission set to 542 and 568 nm, respectively. The molar peptide amounts were calculated using standard curves that were freshly prepared in lysates from relevant blank tissue at concentrations ranging from 30 nM to 2 µM.

[4] abbreviates: 3 nmol/g i.v., 1 h, NMRI mice, comparison among the Tat-conjugates.

As for `CC[C@H](C)[C@H](NC(=O)[C@H](CO)NC(=O)[C@H](CO)NC(=O)[C@H](CC(C)C)NC(=O)[C@H](CCCCN)NC(=O)c1ccc2c(c1)C(=O)OC21c2ccc(N(C)C)cc2Oc2cc(N(C)C)ccc21)C(=O)N[C@@H](CCC(=O)O)C(=O)N[C@@H](CO)C(=O)N[C@@H](CC(=O)O)C(=O)N[C@H](C(=O)O)C(C)C` [TAMRA-NR2B9c] (5TAMRA-KLSSIESDV-OH), in data set [1], the “barrier integrity (TEER before and after peptide application)” value was “did not affect the barrier integrity”. In addition, the “% remaining after 4 h of luminal incubation on the BCECs” value (“% remaining after 4 h” for short) in data set [2] was 95.7% ± 1.6%. The “cell viability compared to media-treated control cells” value in data set [3] is given as “did not decrease cell viability”.
Consider `CC[C@H](C)[C@H](NC(=O)CCOCCOCCN(CCOCCOCCC(=O)N[C@H](C(=O)N[C@@H](CCC(=O)O)C(=O)N[C@H](C(=O)N[C@@H](CC(=O)O)C(=O)N[C@H](C(=O)O)C(C)C)[C@@H](C)O)[C@@H](C)CC)C(=O)[C@H](CCCNC(=N)N)NC(=O)[C@H](CCCNC(=N)N)NC(=O)[C@H](CCCNC(=N)N)NC(=O)[C@H](CCC(N)=O)NC(=O)[C@H](CCCNC(=N)N)NC(=O)[C@H](CCCNC(=N)N)NC(=O)[C@H](CCCCN)NC(=O)[C@H](CCCCN)NC(=O)[C@H](CCCNC(=N)N)NC(=O)CNC(=O)[C@H](Cc1ccc(O)cc1)NC(=O)c1ccc2c(c1)C(=O)OC21c2ccc(N(C)C)cc2Oc2cc(N(C)C)ccc21)C(=O)N[C@@H](CCC(=O)O)C(=O)N[C@H](C(=O)N[C@@H](CC(=O)O)C(=O)N[C@H](C(=O)O)C(C)C)[C@@H](C)O` [TAMRA-Tat-N-dimer], for which the “barrier integrity (TEER before and after peptide application)” value in data set [1] is reported as “did not affect the barrier integrity”. The “barrier integrity (TEER) upon co-application of FITC-dextran with peptide” value in data set [1] (1 mg/mL FITC-dextran with 100 µM peptide) is “did not affect barrier integrity”. The “% remaining after 4 h” value in data set [2] is reported as 85.0% ± 6.0%. For the same molecule, the “TAMRA fluorescence in the kidney” value in “Tissue distribution” (setting [4]) is given as “more fluorescence in the kidney than TAMRA-Tat or TAMRA-Tat-NR2B9c”. For the same molecule, in “Tissue distribution” (male, NMRI, mouse, brain, iv, 3 nmol/g body weight, mice, tissue distribution (abstract), read-out: brain accumulation), the tissue uptake at 1 h came out at 0.25 %ID/g. In addition, in data set [3], the “cell viability compared to media-treated control cells” value was “slight, but non-significant, decrease”.
With `CC[C@H](C)[C@H](NC(=O)[C@H](CO)NC(=O)[C@H](CO)NC(=O)[C@H](CC(C)C)NC(=O)[C@H](CCCCN)NC(=O)[C@H](CCCNC(=N)N)NC(=O)[C@H](CCCNC(=N)N)NC(=O)[C@H](CCCNC(=N)N)NC(=O)[C@H](CCC(N)=O)NC(=O)[C@H](CCCNC(=N)N)NC(=O)[C@H](CCCNC(=N)N)NC(=O)[C@H](CCCCN)NC(=O)[C@H](CCCCN)NC(=O)[C@H](CCCNC(=N)N)NC(=O)CNC(=O)[C@H](Cc1ccc(O)cc1)NC(=O)c1ccc2c(c1)C(=O)OC21c2ccc(N(C)C)cc2Oc2cc(N(C)C)ccc21)C(=O)N[C@@H](CCC(=O)O)C(=O)N[C@@H](CO)C(=O)N[C@@H](CC(=O)O)C(=O)N[C@H](C(=O)O)C(C)C` [TAMRA-Tat-NR2B9c] (5TAMRA-YGRKKRRQRRRKLSSIESDV-OH), in data set [1], the “barrier integrity (TEER before and after peptide application)” value is “significant decrease in TEER”. Further, in data set [2], the “% remaining after 4 h” value is on record as 58.6% ± 13.1%. The “accumulation in the liver” value in the data set “Tissue distribution” (setting [4]) is “to a greater extent than TAMRA-Tat and TAMRA-Tat-N-dimer”. The “cell viability compared to media-treated control cells” value in data set [3] was “slight, but non-significant, decrease”.
Consider `CN(C)c1ccc2c(c1)Oc1cc(N(C)C)ccc1C21OC(=O)c2cc(C(=O)N[C@@H](Cc3ccc(O)cc3)C(=O)NCC(=O)N[C@@H](CCCNC(=N)N)C(=O)N[C@@H](CCCCN)C(=O)N[C@@H](CCCCN)C(=O)N[C@@H](CCCNC(=N)N)C(=O)N[C@@H](CCCNC(=N)N)C(=O)N[C@@H](CCC(N)=O)C(=O)N[C@@H](CCCNC(=N)N)C(=O)N[C@@H](CCCNC(=N)N)C(=O)N[C@@H](CCCNC(=N)N)C(=O)O)ccc21` [TAMRA-Tat], for which, in data set [1], the “barrier integrity (TEER before and after peptide application)” value is “significant decrease in TEER”. Besides, the “% remaining after 4 h” value in data set [2] is recorded as 76.9% ± 5.6%. The “amount in mouse brain homogenate” value in “Tissue distribution” (3 nmol peptide/g body weight, tail vein, 1 h circulation, perfused NMRI mice, TAMRA fluorescence in whole tissue homogenate, mean ± SD, N = 4-6) was 0.4% ± 0.1%. Also, in “Tissue distribution” (setting [4]), the “accumulation in the intestines” value was “superior”. Also, in the data set “Tissue distribution” (3 nmol/g i.v., 1 h, NMRI mice, unpaired t-test), the “TAMRA fluorescence in the brain homogenates (comparison)” value is recorded as “slightly higher levels”. The “cell viability compared to media-treated control cells” value in data set [3] was “slight, but non-significant, decrease”.
